# Reference: US10246489B2, “Peptide inhibitors of calcium oxalate monohydrate crystallization and uses thereof” (UNIVERSITY OF HOUSTON, priority 2013, dated 2019)
# “Also recorded” adds a separate entry of the source.
# What was measured:
# [1] = In situ calcium ion-selective electrode (ISE) measurement of COM crystallization; conditions: for percent reduction in COM growth rate: 20 μg/ml additive, supersaturated calcium oxalate S=5.4, stirred, ISE slope in first 40 min vs control; for increase in peptide efficacy on replacing L-Ala spacer with L-Asp binder (relative to peptide D7): ISE, 20 μg/ml, series D7, D8, D9
# Method: The COM growth rate was measured as the slope (dCa/dt) of decreasing Ca^2+ concentration within the first 40 min of crystallization. […] The percent reduction in COM growth rate was calculated by comparing the ISE slopes of peptides and control using the formula, Percent Reduction=[1−(dCa/dt)peptide/(dCa/dt)control]×100%. Data are averages of 2 or 3 measurements (error bars equal two standard deviations);
# COM crystals for bulk crystallization studies were synthesized using a reported procedure that produces micron-sized crystals with large basal (100) surfaces. COM crystals prepared with molar composition 0.7 mM CaCl2: 0.7 mM Na2C2O4: 150 mM NaCl are referred to as the control. Growth solutions prepared with peptides used 20 μg/ml of the additive (unless otherwise stated).
# As such, measurements reported herein were conducted at a single peptide concentration (20 μg/ml) to assess COM growth inhibition. To facilitate comparison of peptides in Table 1, Applicants calculated the percent reduction in COM growth rate using the relative difference in ISE slopes (units of ppm Ca^2+ per time) for peptide and control samples during the first 40 min of crystallization.
# The slope of ISE curves (FIG. 2A) is the temporal change in free Ca^2+ concentration due to COM nucleation (primary and secondary) and crystal growth. Deconvoluting these two processes (nucleation and growth) from ISE data is nontrivial, particularly if one wishes to extract detailed kinetic information of COM growth rates. […] In the current study, the distinct advantage of ISE compared to more traditional approaches is its ease of use and the rapid time for data acquisition that enables high-throughput analysis of large peptide libraries.
# A quantitative comparison of peptide efficacy for inhibiting COM crystallization was performed using in situ ISE measurements. The percent inhibition in COM growth rate was calculated using the relative difference in ISE slopes in the presence of 20 μg/mL peptide. […] The effect of Asp with Glu in peptide sequences was measured on COM growth inhibition (Table 2).
# [2] = Bulk crystallization studies of COM crystal size and habit (optical microscopy, SEM, AFM); conditions: for COM crystal habit / morphology: bulk crystallization with 20 μg/ml peptide
# Method: FIGS. 4A-4B show macroscopic characterization of COM crystals from bulk crystallization in solutions of 0.5 mM CaC2O4 and 20 μg/ml peptide. Optical microscopy was used to measure: Percent distribution of elongated hexagonal platelet (shaded bars) and diamond platelet (pattern bars) crystal morphologies (FIG. 4A); and length of the COM (100) basal surface measured along the direction (i.e. apical tip-to-tip distance) for hexagonal and diamond morphologies (FIG. 4B). Data in (FIG. 4A) and (FIG. 4B) are the average of three separate crystallization experiments performed at 60° C. for 3 days (error bars equal one standard deviation). Data for peptide D4 (diamond habit) was omitted based on too few crystals for statistical analysis;
# COM crystals for bulk crystallization studies were synthesized using a reported procedure that produces micron-sized crystals with large basal (100) surfaces. COM crystals prepared with molar composition 0.7 mM CaCl2: 0.7 mM Na2C2O4: 150 mM NaCl are referred to as the control. Growth solutions prepared with peptides used 20 μg/ml of the additive (unless otherwise stated). The crystals were characterized by optical microscopy using a Leica DM2500-M microscope, scanning electron microscope (SEM) using a FEI 235 Dual-Beam Focused Ion-beam instrument, atomic force microscopy (AFM) using an Asylum MFP-3D-SA instrument (Santa Barbara, Calif.), and a calcium ion-selective electrode (ISE, ThermoScientific).
# ISE measurements can be used to screen peptide efficacy, but provide little information regarding the specificity of peptide binding to different surfaces of COM crystals. To this end, Applicants used a second analysis step to identify the effect of peptides on COM crystal size and habit. The influence of the peptide library on macroscopic properties of COM crystals was assessed using bulk crystallization studies and optical and scanning electron microscopy to characterize COM crystals grown in the presence of peptides. In vitro, COM crystallization yields elongated hexagonal platelets with {100} basal surfaces bounded by {010} and crystallographically equivalent {121} apical surfaces (FIG. 3A). […] Applicants observed that multiple peptides in the library reduced growth along the directions, which decreased the crystal aspect ratio (length-to-width) and shifted the morphology from hexagonal to diamond platelets. This change in crystal habit can be attributed to the preferential binding of peptides to COM {121} surfaces, which slows growth along the naturally fast growth directions within the (100) plane.
# To more systematically assess the surface topography of COM crystals, Applicants used atomic force microscopy (AFM) to probe the effect of peptides on COM (100) surface roughness. Crystals extracted from control and peptide D5 batches were prepared on AFM sample disks and imaged in air. The RMS roughness for (100) surfaces of hexagonal-shaped crystals from the control and test peptide D5 were approximately 1.0 and 4.3 nm, respectively.
# Crystal batches prepared in bulk studies were analyzed using optical microscopy to quantify changes in COM crystal size and aspect ratio. […] Although there were clear differences in the percent population of diamond-shaped crystals among peptides tested in this study, Applicants observed that the size of diamond crystals were generally the same, irrespective of peptide sequence (FIG. 4B). The majority of COM hexagonal platelets in peptide samples had similar size and aspect ratio as the control (here Applicants only report the length of COM crystals in FIG. 4B). A notable exception, however, was peptide D4, which produced a 22% increase in the length-to-width aspect ratio of COM hexagonal crystals, and an increase in the length from 35 μm (control) to 75 μm (peptide D4).
# [3] = High-throughput colorimetric calcium depletion assay (crystallization half-time); conditions: 37° C., crystallization volume 600 μL, shaking; logistic fit
# Method: Free calcium concentration in the crystallization solution was measured by a colorimetric assay using Quantichrome DICA 500 Calcium assay kit (BioAssay Systems, Hayward, Calif.). Standard solutions (0, 0.1, 0.2, 0.3, 0.4, 0.5, and 1 mM) were prepared using calcium solutions provided with the kit. Detection reagent was prepared by mixing equal volumes of reagent A and reagent B according to manufacturer's instructions. A 10 μL sample was withdrawn from the top of each crystallization well without disturbing the bottom and dispensed into a 96-well microplate. 100 μL of detection reagent was added to each well and incubated for 3 minutes at room temperature. The absorbance was measured at 612 nm using Biotek Synergy H4 microplate reader (BioTek, Winooski, Vt.). Calcium concentration was determined using a calibration curve prepared from standard calcium solutions.
# Time course of depletion of free calcium in the crystallization solution, normalized to the initial concentration, was fitted to a nonlinear logistic function using OriginPro Software (Origin Lab, Northhampton, Mass.). The logistic function relating calcium concentration to time is given by
# where [Ca]t is the normalized calcium concentration at time t, A1 is the normalized initial supersaturation concentration (i.e at t=0), A2 is the normalized equilibrium concentration (i.e. at t=∞), p is the hill coefficient which represents slope of the curve at midpoint, and t1/2 is the crystallization half-time (CHT), defined as the time at which crystallization is 50% complete (i.e. [Ca]t1/2=[…]). A1 was fixed at 1, and A2, p and t1/2 were obtained from fitting the data to equation 1. CHT was used as a measure of inhibition potentials of the peptides. A one-way ANOVA in combination with Tukey post hoc test at p<0.05 level was used to probe statistical significance. Applicants' studied the effects of experimental parameters including volume, shaking and temperature on crystallization in designing a high-throughput screening assay. Applicants have shown the logistic model effectively represents the three phases: induction, crystal growth and equilibrium observed in our setup, and CHT (t1/2) can be used as a measure of efficacy of potential crystal growth modifiers. The peptide library screened comprised of Asp and Ala residues (peptides D1-D13) at optimized assay conditions of 37° C., crystallization volume of 600 μL in a shaking environment. […] The high throughput of the assay provides the opportunity to assess the growth modulation potential of crystal growth modifiers at varying modifier concentrations, supersaturations and ionic strengths with relative ease. […] Finally, the assay can be translated to other crystallization systems in a relatively straightforward fashion for rational design and discovery of growth modifiers for specific applications.
# [4] = Calcium ISE measurements of COM growth at room temperature, Glu-Ala peptide library
# [5] = ISE slopes in the presence of 20 μg/mL peptide, comparison X = D vs X = E
Substance,"% inhibition [1, 5]",COM crystal habit / morphology ([2]; SEM),"CHT (hr), crystallization half-time [3]",further results
A-E-A-A-A-E-E-A-A-A-E-A-A-A-E-E-A-A (AEAAAEEAAAEAAAEEAA; Synthesized Calcium oxalate monohydrate inhibitory polypeptide) [E5],36 ± 21%,,,"% inhibition [1, 4]: 36 ± 21%"
A-E-A-A-E-A-A-A-E-A-A-E-E-A-A-E-A-A (AEAAEAAAEAAEEAAEAA; Synthesized Calcium oxalate monohydrate inhibitory polypeptide) [E6],52 ± 16%,polydisperse distribution of crystals; also recorded: less effective than E7,,"% inhibition [1, 4]: 52 ± 16%"
A-E-A-A-E-A-A-E-A-A-E-A-A-E-A-A-E-A (AEAAEAAEAAEAAEAAEA; Synthesized Calcium oxalate monohydrate inhibitory polypeptide) [E3],40 ± 18%,,,
A-E-A-A-E-E-A-A-A-A-A-A-E-A-A-E-A-A (AEAAEEAAAAAAEAAEAA; Synthesized Calcium oxalate monohydrate inhibitory polypeptide) [E7],,polydisperse distribution of crystals,,
AADAAAAADDAAAADAAA (Synthesized Calcium oxalate monohydrate inhibitory polypeptide) [D2],,,3.533 h,
ADAAADAADAADDAADAA (Synthesized Calcium oxalate monohydrate inhibitory polypeptide) [D3],,,4.142 h,
ADAAADDAAAAAAAADAA (Synthesized Calcium oxalate monohydrate inhibitory polypeptide) [D7],,,5.771 h,"percent reduction in COM growth rate [1]: < 1%; [100] thickness of hexagonal platelets relative to control ([2]; SEM, 20 μg/ml peptide): decreased the [100] thickness of hexagonal platelets by nearly a factor of two"
ADAAADDAAADAAAADAA (Synthesized Calcium oxalate monohydrate inhibitory polypeptide) [D8],,,4.792 h,"percent reduction in COM growth rate [1]: ~6%; increase in peptide efficacy on replacing L-Ala spacer with L-Asp binder (relative to peptide D7) [1]: an order of magnitude increase in efficacy; percentage of diamond-shaped crystals in total crystal population ([2]; 20 μg/ml peptide, 60° C. for 3 days, optical microscopy, average of three experiments): largest populations of diamond-shaped crystals; population of diamond crystals on doubling peptide concentration ([2]; concentration increased from 20 to 40 μg/ml): did not observe an appreciable increase in the population of diamond crystals"
ADAAADDAAADAAADDAA (Synthesized Calcium oxalate monohydrate inhibitory polypeptide) [D9],36 ± 8%,,7.277 h,percent reduction in COM growth rate [1]: 40%; increase in peptide efficacy on replacing L-Ala spacer with L-Asp binder (relative to peptide D7) [1]: ~70
ADAAADDDAAADAAADDD (Synthesized Calcium oxalate monohydrate inhibitory polypeptide) [D6],,,5.041 h,factor of increase of the [001] length of hexagonal COM crystals relative to the control ([2]; 20 μg/ml peptide): 1.5
ADAADAAADAADDAADAA (Synthesized Calcium oxalate monohydrate inhibitory polypeptide) [D10],36 ± 5%,,6.054 h,
ADAADAADAADAADAADA (Synthesized Calcium oxalate monohydrate inhibitory polypeptide) [D4],21 ± 10%,higher length-to-width aspect ratio,4.432 h,"percent reduction in COM growth rate [1]: 20%; [001] length of COM hexagonal crystals ([2]; 20 μg/ml peptide, control 35 μm): 75 μm; increase in the length-to-width aspect ratio of COM hexagonal crystals ([2]; 20 μg/ml peptide, vs control (2.67±0.05)): 22%"
ADAADDAAAAAADAADAA (Synthesized Calcium oxalate monohydrate inhibitory polypeptide) [D11],,large {121} surface area,5.767 h,
ADADADADADADADADAD (Synthesized Calcium oxalate monohydrate inhibitory polypeptide) [D13],,,8.114 h,
ADDAADAADAADDAADDA (Synthesized Calcium oxalate monohydrate inhibitory polypeptide) [D12],,,7.135 h,
DDDAAAAADDDAAAAADD (Synthesized Calcium oxalate monohydrate inhibitory polypeptide) [D1],,small {121} surface area,6.482 h,factor of increase of the [001] length of hexagonal COM crystals relative to the control ([2]; 20 μg/ml peptide): 2.0
